The numbers were not newly measured in publication PMC11511053, “Characterization of Kunitz-Domain Anticoagulation Peptides Derived from Acinetobacter baumannii Exotoxin Protein F6W77” (Toxins, 2024), which cites them from elsewhere.

This series relates to Target. Particulars: Table 1, column Ref; ref PN2KPI [25], RVV inhibitor II [40], Simukunin [43], EnKT1 [48], SjKI-1 [22], Schixator [50], SmKI-1 [49], joannsin [44], KPI [45], BF9 [29], Fasxiator [42], Amblyomin-X [27], TAP [46], Bicolin [47]; cited from earlier work. An excerpt: Table 1 Natural Kunitz-type anticoagulant peptides from different organisms. | column: Target

For “TAP: Kunitz-type anticoagulant peptide from tick (YNRLCIKPRDWIDECDSNEGGERAYFRNGKGGCDSFWICPEDHTGADYYSSYRDCFNACI; UniProt P17726 1-60, looked up)”, the Target result was “FXa”.
